Experiment: speed of dissolution in water (10 mg crystal in 50 mL ion exchanged water, 60 rpm, concentration by liquid chromatography)
Type: physicochemical
Settings: for concentration (elution %): 10 mg in 50 mL ion exchanged water, 60 revolutions per minute
Protocol: The anhydrous form of a B type crystal of 7-[2-(2-aminothiazol-4-yl)-2-hydroxyiminoacetamide]-3-vinyl-3-cephem-4-carboxylic acid (syn isomer) obtained in Example 2, and the A type crystal of a compound (I) obtained by deposition of a crystal from a sodium bicarbonate aqueous solution having a pH value of 3.6 and a temperature of 22° C. in Example 1 were used, and the speed of dissolution thereof in water was measured.
Namely, each 10 mg of the above-mentioned A type crystal or B type crystal was put into 50 mL of ion exchanged water and dissolved at a revolution per minute of 60, and the concentrations of each crystal in the solution with the lapse of time were measured by liquid chromatography.

| concentration (elution %) (lapse time 110 min) | concentration (elution %) (lapse time 340 min) | concentration (elution %) (lapse time 700 min) | SMILES | solubility in water compared with conventional A type crystal (conclusion from Table 5) |
| --- | --- | --- | --- | --- |
| 32.7 | 39.7 | 63.7 | C=CC1=C(C(=O)O)N2C(=O)C(NC(=O)/C(=N\O)c3csc(N)n3)C2SC1 (stereo not drawn) [A type crystal, 7-[2-(2-aminothiazol-4-yl)-2-hydroxyiminoacetamide]-3-vinyl-3-cephem-4-carboxylic acid (syn isomer), reference compound] | – |
| 72.8 | 78.4 | 91.1 | C=CC1=C(C(=O)O)N2C(=O)C(NC(=O)/C(=N\O)c3csc(N)n3)C2SC1 (stereo not drawn) [B type crystal, 7-[2-(2-aminothiazol-4-yl)-2-hydroxyiminoacetamide]-3-vinyl-3-cephem-4-carboxylic acid (syn isomer)] | more excellent solubility in water as compared with a conventional A type crystal |

Reference: patent US20070270586A1, “NOVEL CRYSTAL OF 7-[2-[(2-AMINOTHIAZOL-4-YL)-2-HYDROXYIMINOACETAMIDE-3-VINYL-3-CEPHEM-4-CARBOXYLIC ACID (SYN ISOMER) AND METHOD FOR PREPARATION THEREOF” (priority 2003, published 2007)
